# According to patent US7718390B2, “Toxoplasma gondii cylclic GMP dependent protein kinase G as a chemotherapeutic target for antiprotozoal agents” (priority 1999, dated 2010):
# Read-outs that look alike come from different tables or passages of the source.
# What was measured:
# [1] = test system: E. tenella PKG (120 kDa protein); test: Competitive binding assay using [3H] Inhibitor Compound; parameters: species or system Eimeria tenella; conditions: purified native PKG fraction
# Experimental: PKG is incubated with appropriately diluted [^3H] Inhibitor Compound for 60 minutes on ice and free ligand is separated from bound ligand by elution through 0.8 ml G-25 gel filtration columns (purchased from AGTC). The void volume, containing ligand-bound protein, is collected and radioactivity assessed by liquid scintillation counting. For competitive binding studies, excess or appropriately diluted cold competitor(s) are added simultaneously with, or 0.01-5 minutes before, the addition of radiolabeled compound. The concentration of the test compound required to inhibit 50% (IC50) of the binding of the labeled inhibitor to the parasite drug binding protein(s) is calculated.
# For the competitive binding assay PKG may be the S100 fraction, crude preparation containing PKG activity, or recombinant PKG. Generally, the PKG preparation contains 20-50 μg of protein.
# The S100 fraction was dialyzed against 2 L of Buffer A (30 mM sodium phosphate, pH 7.4, 1 mM DTT, 1 mM EDTA, 20% glycerol, 10 mM sodium fluoride, 0.1 mM sodium orthovanadate) overnight at room temperature. The dialysate was centrifuged at 100,000×g for 1 hour and the pellet discarded. […]
# (d) cGMP agarose affinity chromatography. […] Fractions were analyzed for [^3H]-Inhibitor Compound binding, PKG activity and by silver staining following polyacrylamide gel electrophoresis. […]
# [2] = biological target: E. tenella PKG (Eimeria tenella, UniProt Q8MMZ8); test: biochemical; assay type: biochemical; conditions: for IC50: read-out: IC50, inhibition of PKG catalytic activity
# Sequence of E. tenella PKG (Q8MMZ8 2-1003): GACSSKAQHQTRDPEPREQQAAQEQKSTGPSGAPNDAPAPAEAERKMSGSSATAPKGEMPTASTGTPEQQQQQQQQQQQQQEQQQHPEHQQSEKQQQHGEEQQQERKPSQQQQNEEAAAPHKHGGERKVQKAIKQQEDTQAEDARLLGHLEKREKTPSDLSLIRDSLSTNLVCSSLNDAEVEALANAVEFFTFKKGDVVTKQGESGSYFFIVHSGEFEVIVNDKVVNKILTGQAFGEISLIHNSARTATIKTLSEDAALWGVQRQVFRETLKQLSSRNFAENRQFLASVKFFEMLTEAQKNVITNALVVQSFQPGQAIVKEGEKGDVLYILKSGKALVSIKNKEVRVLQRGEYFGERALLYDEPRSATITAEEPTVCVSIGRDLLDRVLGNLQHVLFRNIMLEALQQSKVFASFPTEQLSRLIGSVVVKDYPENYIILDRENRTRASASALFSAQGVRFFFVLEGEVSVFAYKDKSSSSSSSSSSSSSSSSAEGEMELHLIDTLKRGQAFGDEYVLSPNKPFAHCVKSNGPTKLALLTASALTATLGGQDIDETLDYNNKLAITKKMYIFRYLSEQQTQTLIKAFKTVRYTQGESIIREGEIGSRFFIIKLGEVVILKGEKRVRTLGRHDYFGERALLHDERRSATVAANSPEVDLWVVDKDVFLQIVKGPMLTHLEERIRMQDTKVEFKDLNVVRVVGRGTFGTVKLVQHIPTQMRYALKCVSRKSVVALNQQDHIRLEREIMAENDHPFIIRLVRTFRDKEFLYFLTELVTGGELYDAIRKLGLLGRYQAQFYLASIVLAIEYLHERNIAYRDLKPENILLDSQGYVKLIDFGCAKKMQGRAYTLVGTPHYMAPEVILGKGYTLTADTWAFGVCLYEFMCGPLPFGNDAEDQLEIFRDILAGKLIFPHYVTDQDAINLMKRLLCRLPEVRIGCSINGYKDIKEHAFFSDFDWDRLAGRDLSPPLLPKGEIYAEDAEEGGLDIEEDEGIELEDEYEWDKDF
# Experimental: The enzyme inhibition assay involves adding PKG or an extract containing PKG to mixtures of enzyme substrates (one of which is radiolableled) and the test compound, each of which are present in known concentrations. The amount of the enzyme is chosen such that less than 20% of the radiolabeled substrate (usually [^32P]- or [^33P]-ATP,) is consumed during the assay. The assay is carried out with the test compound at a series of different dilution levels. After a period of incubation, the labeled portion of the ATP substrate becomes covalently attached by enzymatic action to the peptide or protein substrate. This reaction product is separated from unincorporated precursor and counted.
# E. tenella PKG purified fraction (obtained as described in Example 3) (0.05 μl) is incubated for 2 hours at room temperature in 20 μl of an incubation mixture containing: 25 mM HEPES, pH 7.4, 10 mM MgCl2, 5 mM beta-mercaptoethanol, 20 mM beta-glycerophosphate (or 100 μM sodium orthovanadate), 10 μM cGMP, 2 μM ATP, 10 nM [^33P] ATP (2000 Ci/mmole), 400 μM Kemptide (or 2 mM Kemptide or 0.43 mg/ml myelin basic protein). The reaction is then quenched with 2.5 μl of 0.25 M phosphoric acid per 20 μl assay volume, and the mixture is spotted on Whatman P81 chromatography paper. The chromatography paper is allowed to dry for 2 minutes, washed 5 times for 3 min. each with 150 mls of 75 mM phosphoric acid, then washed briefly with 95% ethanol. After air drying, labeled kemptide remaining on the filter is quantitated by liquid scintillation counting.
# E. tenella PKG purified fraction as described above (0.05 μl) was incubated for 2 hours at room temperature in 20 μl of an incubation mixture containing: 25 mM HEPES, pH 7.4, 10 mM MgCl2, 5 mM beta-mercaptoethanol, 20 mM beta-glycerophosphate (or 100 μM sodium orthovanadate), 10 μM cGMP, 2 μM ATP, 10 nM [^33P] ATP (2000 Ci/mmole), 400 μM Kemptide (or 2 mM Kemptide or 0.43 mg/ml myelin basic protein). […] After air drying, labeled kemptide remaining on the filter was quantitated by liquid scintillation counting.
SMILES,binding to the 120 kDa E. tenella protein (PKG) [1],IC50 ([2]; native E. tenella PKG) [nM],"IC50 ([2]; recombinant expressed E. tenella PKG (Et.PKG7, Sf9 cells)) [nM]","stimulation of kinase activity by cyclic nucleotide cofactor ([2]; biochemically purified native E. tenella protein, compared with absence of cyclic nucleotide cofactors)"
"CN1CCC(c2cc(-c3ccncc3)c(-c3ccc(F)cc3)[nH]2)CC1 [Inhibitor Compound, 2-(4-fluorophenyl)-5-(N-methylpiperidin-4-yl)-3-(4-pyridyl)pyrrole]",specifically binds,< 5,< 5,
Nc1nc2c(ncn2[C@@H]2O[C@@H]3COP(=O)(O)O[C@H]3[C@H]2O)c(=O)[nH]1 [cGMP],,,,greater than 400 fold
